Measurements as given in PMC3042952 (Nature structural & molecular biology, 2009).

T1: T2-TrpRS (Homo sapiens, UniProt P23381)
T1 sequence (P23381 94-471): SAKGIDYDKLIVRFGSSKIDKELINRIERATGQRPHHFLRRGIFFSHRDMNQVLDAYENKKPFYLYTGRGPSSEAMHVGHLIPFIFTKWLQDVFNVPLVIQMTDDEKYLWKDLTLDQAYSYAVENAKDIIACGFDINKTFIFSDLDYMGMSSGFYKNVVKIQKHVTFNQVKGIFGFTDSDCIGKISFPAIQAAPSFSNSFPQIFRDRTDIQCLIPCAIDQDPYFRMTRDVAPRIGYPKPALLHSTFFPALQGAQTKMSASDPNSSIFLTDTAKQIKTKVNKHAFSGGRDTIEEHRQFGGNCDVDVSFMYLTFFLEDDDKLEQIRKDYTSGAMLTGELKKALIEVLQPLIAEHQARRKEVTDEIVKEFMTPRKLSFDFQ

T2: human VE-cadherin (extracellular portion)-Fc fusion, purified (human, UniProt P33151 48-599)
T2 sequence (looked up): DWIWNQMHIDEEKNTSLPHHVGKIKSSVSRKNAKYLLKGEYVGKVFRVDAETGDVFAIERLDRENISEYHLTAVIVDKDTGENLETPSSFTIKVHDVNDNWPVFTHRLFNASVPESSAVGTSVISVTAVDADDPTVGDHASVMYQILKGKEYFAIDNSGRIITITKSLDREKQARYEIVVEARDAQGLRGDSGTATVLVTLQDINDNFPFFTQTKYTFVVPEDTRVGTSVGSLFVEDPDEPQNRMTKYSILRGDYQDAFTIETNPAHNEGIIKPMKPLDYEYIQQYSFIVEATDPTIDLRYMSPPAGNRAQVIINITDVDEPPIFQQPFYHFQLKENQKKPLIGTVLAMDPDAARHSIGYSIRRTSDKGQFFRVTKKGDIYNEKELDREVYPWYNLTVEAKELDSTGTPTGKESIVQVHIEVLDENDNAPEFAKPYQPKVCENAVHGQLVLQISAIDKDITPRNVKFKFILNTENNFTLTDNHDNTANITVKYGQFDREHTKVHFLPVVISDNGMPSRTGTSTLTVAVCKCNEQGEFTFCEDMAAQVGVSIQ


Assays:
T2-TrpRS = biological target: T1, T2-TrpRS; assay: isothermal titration calorimetry; assay type: binding
[1] = biological target: T2, human VE-cadherin (extracellular …); assay: co-IP

Kd (T2-TrpRS) [µM] | amount bound relative to T2-TrpRS [1] [%] | Molecule
11 | – | N[C@@H](Cc1c[nH]c2ccccc12)C(=O)O [Trp]
– | ~5 | full-length human tryptophanyl-tRNA synthetase (FL-TrpRS) (enzyme, UniProt P23381 1-471, looked up) MPNSEPASLLELFNSIATQGELVRSLKAGNASKDEIDSAVKMLVSLKMSYKAAAGEDYKADCPPGNPAPTSNHGPDATEAEEDFVDPWTVQTSSAKGIDYDKLIVRFGSSKIDKELINRIERATGQRPHHFLRRGIFFSHRDMNQVLDAYENKKPFYLYTGRGPSSEAMHVGHLIPFIFTKWLQDVFNVPLVIQMTDDEKYLWKDLTLDQAYSYAVENAKDIIACGFDINKTFIFSDLDYMGMSSGFYKNVVKIQKHVTFNQVKGIFGFTDSDCIGKISFPAIQAAPSFSNSFPQIFRDRTDIQCLIPCAIDQDPYFRMTRDVAPRIGYPKPALLHSTFFPALQGAQTKMSASDPNSSIFLTDTAKQIKTKVNKHAFSGGRDTIEEHRQFGGNCDVDVSFMYLTFFLEDDDKLEQIRKDYTSGAMLTGELKKALIEVLQPLIAEHQARRKEVTDEIVKEFMTPRKLSFDFQ
